Experiments:
[1] = system: RXRα, RXRβ, RXRγ, LXRα, LXRβ, PXR, PPARα, PPARβ, PPARγ, and GPBAR; test: NR selectivity one-hybrid assay in HEK-293T cells (panel of metabolic NRs); format: cell-based
Procedure: To assess the compound’s specificity, the mammalian one-hybrid assay was conducted. In this assay, HEK-293T cells were co-transfected with a fusion plasmid of Gal4 DBD-NR LBD (comprising RXRα, RXRβ, RXRγ, PPARα, PPARβ, PPARγ, LXRα, LXRβ, GPBAR, and PXR) and the UAS-TK-Luc reporter, followed by treatment with various concentrations of the compound. The positive control consisted of the corresponding nuclear receptor agonist, and the concentration used in the experiment was set to the EC50 of the agonist.
Figure 3 Compound 10b selectively antagonized FXR. The impact of compound 10b on various NRs was evaluated using a […] one-hybrid assay in HEK-293T cells. The cells were transiently co-transfected with a fusion plasmid of Gal4 DBD-NR-LBD, which included PPARα, PPARβ, PPARγ, RXRα, RXRβ, RXRγ, LXRα, LXRβ, GPBAR, PXR, and FXR, in combination with the UAS-TK-Luc reporter. […] The values are expressed as the means ± SE of three independent experiments. *: p < 0.05 vs. RA (relative agonist).

[2] = system: LX-2 cells; test: mRNA expression of liver fibrosis marker genes in TGFβ1-induced LX-2 cells; format: cell-based; conditions: 20 μM, induced by 2 ng·mL^−1 TGFβ1, 24 h
Procedure: (§1) Cells and liver tissue samples were subjected to RNA extraction and purification, followed by reverse transcription of equal amounts of total RNA into […] using a Transcriptor First Strand cDNA Synthesis Kit (Roche). The relative expression levels of the target gene were determined using TaqMan probe/primers with an ABI Q3 quantitative real-time PCR system, while GAPDH/Gapdh was utilized as an internal control for mRNA expression. The fold change in the expression of the target mRNA was calculated using Equation 2^−ΔΔCt.
(A–E) The LX-2 cells underwent a 24 h treatment of 2 ng·mL^−1 TGFβ1, with or without varying concentrations of candidate compounds, following FBS starvation. […] GAPDH/GAPDH was used as the loading control. The mean ± SD values were obtained from three independent assays. […] ANOVA was followed by Tukey’s test for statistical analysis.

[3] = system: BDL rats; test: Bile duct ligation (BDL) rat model; format: in vivo; conditions: 100 mg·kg-1 oral, 14 days
Procedure: as §1
The study involved 24 rats that were randomly assigned to 1 of 3 groups, including sham, BDL-N.S., and BDL-10b-100mg·kg^−1, ensuring 8 animals per group using Research Randomizer (RRID: SCR_008563). Of the 24 rats, 16 underwent BDL surgery, wherein the choledochal duct was ligated with surgical sutures after administering isoflurane anesthesia. After 24 h, the BDL rats were randomly divided into […] and received daily gavages of either normal saline (BDL-NS group) or 100 mg·kg^−1 of compound 10b suspended in 0.5% sodium carboxymethylcellulose solution (BDL-10b groups) for 14 days. A healthy control group was established with eight rats undergoing sham surgery. Bodyweights were measured daily, and blood samples were collected from the abdominal aorta after an overnight fast. Euthanasia was performed using isoflurane, following which bile was collected using a syringe, and liver tissue samples were collected. Some of the samples were fixed with 4% paraformaldehyde for subsequent histological examination, while others were stored at −80 °C for further analysis.
(§2) Kits purchased from Zhongsheng Beikong Biotechnology (Beijing, China) were used to measure the serum concentrations of alanine aminotransferase, aspartate aminotransferase, alkaline phosphatase, γ-glutamyl transpeptidase, total cholesterol, total triglyceride, low-density lipoprotein (LDL), high-density lipoprotein (HDL) cholesterol, lactate dehydrogenase, total bile acid, and total bilirubin. The samples were analyzed on a Hitachi 7100 Analyzer.
(§3) The liver tissue was fixed with formalin, embedded in paraffin, and sectioned. The sections were stained with H&E, Oil Red, Masson’s, and Sirius Red. Liver necrosis, inflammation, bile duct proliferation, hepatic steatosis, and lobule inflammation were evaluated on a scale of 1–5 in a blinded manner using a Leica DM1000 microscope. Five randomly selected manifold area fields of vision were used to quantify the red area in each field of vision (eight in each group), which was counted using ImageJ software. The liver hydroxyproline concentration was determined using kits from Nanjing, China, in accordance with the manufacturer’s instructions.

[4] = system: HFD mice; test: CDAHFD diet-induced NASH mouse model; format: in vivo
Procedure: as §1
A total of 24 C57BL/6N mice were randomly assigned to three groups, including Ctrl., Model-N.S., and Model-10b-100 mg·kg^−1, with eight animals per group. The randomization process was performed using Research Randomizer (RRID: SCR_008563). CDHFD (D09100310) diet was obtained from Research Diets Inc. Sixteen mice were fed the CDHFD diet for 12 weeks to induce NASH, with eight mice receiving a normal diet as a control. At the beginning of the 13th week, the mice in the model group were randomly assigned into two groups and given daily gavages of either normal saline (Model-N.S. group) or 100 mg·kg^−1 of compound 10b suspended in 0.5% sodium carboxymethylcellulose solution (Model-10b groups) for four weeks. Daily bodyweights were recorded, and blood samples were collected from the abdominal aorta following an overnight fast. Afterward, the mice were euthanized using isoflurane. Liver tissue samples were obtained, and some were treated with 4% paraformaldehyde to prepare them for future histological analysis, while others were kept at −80 °C for later examination. Maximum liver lobule was collected for each mouse.
as §2, §3
The mouse liver samples were cut into small pieces of 50 mg size and homogenized in TG, TC, and FC extracts using a high-speed tissue homogenizer. The TG, TC, and FC were then extracted from the tissue, and their contents in the sample were calculated using the protein content for calibration. The determination process utilized the test kit for TC, TG, and FC of high-fat samples from Applygen Technologies Inc. (E1025, E1026, E1027).

[5] = HFD (CDAHFD) mice, 100 mg·kg-1 gavage daily, four weeks

`CC1(C)CCC2(C(=O)O)CCC3(C)C(C(OC(=O)CCC(NC(=O)OC(C)(C)C)C(=O)OC(C)(C)C)CC4C5(C)CCC(O)C(C)(C)C5CCC43C)C2C1` [Compound 10b, 3β-hydroxy-12β-(4′-((tert-butoxycarbonyl)amide)-5′-(tert-butoxy)-L-glutamte)oxy-13H-olean-28-oic acid] was tested, and the “agonistic effect for tested NRs or GPBAR” value [1] was “no agonistic effect”, the “mRNA expression of ACTA2” value [2] was “significantly decrease” and the “mRNA expression of COL1A1” value [2] was “significantly decrease”. The “mRNA expression of CTGF” value [2] was “significantly decrease”, the “mRNA expression of ITGAV” value [2] was “significantly decrease” and the “mRNA expression of TGFb1” value [2] was “significantly decrease”. The “Bile TBA” value [3] was 249.4 ± 103.67 µmol/L, the “Bile TBiL” value [3] was 5.8 ± 2.46 µmol/L and the “Serum ALP” value [3] was 391.33±52.42 U·L-1. For the same compound, the “Serum HDL” value [3] was 0.29 ± 0.06 mmol/L, the “Serum LDL” value [3] was 1.06 ± 0.22 mmol/L and the “Serum γ-GT” value [3] was 37.5±6.74 U·L-1. The “Urine TBA” value [3] was 15.38 ± 5.76 µmol/L, the “Urine TBiL” value [3] was 5.33 ± 1.50 µmol/L and the “expression of fibrogenic genes Col1a1, Acta2, Tgfb1, Mmp2, Timp1, Itgav, Ctgf in rat liver (qRT-PCR)” value [3] was “reduced”. For the same compound, the “liver collagen accumulation (Sirius red staining)” value [3] was “significantly attenuated”, the “pathological impairments (bile duct hyperplasia, parenchymal necrosis, inflammation; H&E)” value [3] was “substantially reduced” and the “liver necrosis scores (blinded assessment)” value ([3]; vs BDL rats) was “significantly lower”. The “hepatic lobular inflammation (NAS score)” value ([4]; CDAHFD mice, 100 mg·kg-1) was “improved”, the “intrahepatic steatosis (NAS score)” value ([4]; CDAHFD mice, 100 mg·kg-1) was “improved” and the “liver FC (free cholesterol)” value ([4]; CDAHFD mice, 100 mg·kg-1) was “no significant effect”. For the same compound, the “liver TC” value ([4]; CDAHFD mice, 100 mg·kg-1) was “no significant effect”, the “total triglyceride content in the liver” value ([4]; CDAHFD mice, 100 mg·kg-1) was “reduced” and the “Serum ALP” value [4, 5] was 189.71±29.41 U·L-1. For the same compound, the “Serum ALT” value [4, 5] was 325.43±88.40 U·L-1, the “Serum AST” value [4, 5] was 401.86±91.05 U·L-1 and the “Serum CHO” value [4, 5] was 2.36 ± 0.44 mmol/L. The “Serum Glu” value [4, 5] was 5.71 ± 1.25 mmol/L, the “Serum HDL” value [4, 5] was 1.22 ± 0.33 mmol/L and the “Serum LDH” value [4, 5] was 1326.57±264.54 U·L-1. For the same compound, the “Serum LDL” value [4, 5] was 0.23 ± 0.04 mmol/L, the “Serum TBA” value [4, 5] was 23.46 ± 12.81 µmol/L and the “Serum TBiL” value [4, 5] was 3.81 ± 0.92 µmol/L. The “mRNA expression of liver fibrosis-related genes in liver” value ([4]; NASH mouse model, 100 mg·kg-1) was “inhibit”.

From publication PMC10221314 (Pharmaceuticals, 2023)
